Assay results from patent US9492426B2, “Mycophenolic acid analogues as anti-tumor chemosensitizing agents” (Texas A & M University System, priority 2011, dated 2016).
pIC50: −log10 of the molar value. Like-named read-outs stand apart in the source and are kept apart here.

Key:
MDA-MB-231 cells = assay: BrdU labeling (cell proliferation) in MDA-MB-231 cells; format: cell-based, human; conditions: 5-FU 0.15 ug/ml alone or MPA 0.19 uM alone
Experimental: Primary antibodies used for immunofluorescence included rabbit anti-NS (Ab138, Cocalico), rat anti-BrdU (BU1/75, Accurate), and mouse anti-fibrillarin (38F3, EnCor) antibodies. To measure cell proliferation, cultures were treated with bromodeoxyuridine (BrdU, Accurate, OBT0030) 1 hour before harvest.

pre-rRNA transcripts = assay: Real-time RT-PCR of pre-rRNA transcripts; format: cell-based
Experimental: The AC(t) values between the target message and two reference messages (HMG-14 and […]) were determined using the MyiQ single-color real-time PCR detection system and supermix SYBR green reagent. The AAC(t) values were measured from two biological replicates and two technical repeats (n=4). Primer sequences are: SJ1, 5′-[…]-3′ and 5′-[…]-3′; SJ2, 5′-[…]-3′ and 5′-[…]-3′; SJ3, 5′-[…]-3′ and 5′-[…]-3′; and 18S, 5′-[…]-3′ and 5′-[…]-3′.
The anti-tumor activity of MPA has been linked to nucleolar stress. To investigate whether the synergy of MPA on 5-FU is related to nucleolar stress, Applicants tested the anti-tumor effect of 5-FU in combination with two inhibitors (actinomycin D [AMD] and ADR). Both drugs trigger nucleolar disassembly, but differ in that low-dose AMD (0.05 ug/ml) inhibits the activity of RNA polymerase-I, whereas ADR (2 uM) inhibits the activity of RNA polymerase-II. […] To determine how 5-FU and MPA affect the synthesis or processing of pre-rRNAs, Applicants used real-time RT-PCR to measure the amounts of rRNA transcripts with the splice junction-1 (SJ-1), SJ-2, SJ-3, and 18S rRNA sequences (FIG. 3B). […] By contrast, 5-FU alone increases 47S pre-rRNA and decreases the amount of SJ-3-containing transcripts.

[1] = test system: dysplastic oral keratinocyte (DOK) cells; assay: Growth inhibition (IC50) and combination index in dysplastic oral keratinocyte cells; format: cell-based; conditions: single agent, read-out: IC50 concentration
Experimental: Cells were plated in 96-well plates for one day and received drug treatments for 3 days. The plating cell densities were 2,000 cells/well for human cancer cell lines, 3,000 cells/well for tumor sphere cells, and 10,000 cells/well for primary tumor cells. Following the addition of MTT solutions (10 μl, 5 mg/ml), cells were incubated for 4 hours to allow MTT to be metabolized to formazan. Formazan was then dissolved in DMSO and measured by spectrophotometer at 560 nm.
The tumor growth-inhibitory curves of individual drugs were first measured by the MTT assay over a range of five concentrations with three-fold increment. The half-inhibitory concentrations (IC50) were calculated by Calcusyn program (Biosoft, Ferguson, Mo.). The combined effects were measured by mixing two drugs at the 4:1, 2:1, 1:1, 1:2, or 1:4 ratio of their respective IC50 concentrations. Each combination was tested for its tumor growth-inhibitory effect over a range of five different dosages, and calculated for its CI using the Calcusyn program.

nucleostemin = assay: Nucleostemin protein level in MDA-MB-231 cells; format: cell-based, human
Text: To test the idea that nucleostemin may be involved in mediating the synergy between MPA and 5-FU, Applicants first confirmed that MPA treatment decreases the protein level of endogenous nucleostemin but not that of GNL3L and Ngp-1, the two nucleostemin homologues in vertebrate (FIG. 4A). […] Applicants noted that cells in the three control groups appear to be more resistant to the 5-FU/MPA-combined treatment than to the parental MDA-MB-231 cells, which may be caused by the G418/puromycin drug selection process.

| Structure (SMILES) | proliferative rate (BrdU labeling) (MDA-MB-231 cells) | 47S pre-rRNA (pre-rRNA transcripts) | amount of SJ-3-containing transcripts (pre-rRNA transcripts) | IC50 ([1]; Keratinocyte) [mg/L] | amount of pre-rRNA transcripts (SJ-1, SJ-2, SJ-3, 18S), including 47S pre-rRNA (pre-rRNA transcripts) | protein level of endogenous nucleostemin (nucleostemin) | pIC50 ([1]; Keratinocyte) | pIC50 [1] |
| --- | --- | --- | --- | --- | --- | --- | --- | --- |
| O=c1[nH]cc(F)c(=O)[nH]1 [5-FU, 5-fluorouracil] | does not decrease | increases | decreases | 1.67 | – | – | – | – |
| COc1c(C)c2c(c(O)c1C/C=C(\C)CCC(=O)O)C(=O)OC2 [MPA, mycophenolic acid] | does not decrease | – | – | – | decrease the amount of pre-rRNA transcripts | decreases | 5.18 | – |
| O=C1[O][Pt]2([NH][C@@H]3CCCC[C@H]3[NH]2)[O]C1=O [oxaliplatin] | – | – | – | – | – | – | – | 6.08 |
| CC(=O)O[C@H]1C(=O)[C@@]2(C)[C@H]([C@H](OC(=O)c3ccccc3)[C@]3(O)C[C@H](OC(=O)[C@H](O)[C@@H](NC(=O)c4ccccc4)c4ccccc4)C(C)=C1C3(C)C)[C@]1(OC(C)=O)CO[C@@H]1C[C@@H]2O [paclitaxel] | – | – | – | – | – | – | 6.68 | – |
